Measured values: US20030053977A1, “Compositions comprising at least one aminated C5-C7 saccharide unit, and their use for the protection and/or repair of keratinous fibers” (priority 2001, published 2003)

Columns and labels:
[1] = DSC doublet peak area of normal blonde hair after 12 heat cycles (lyxosylamine)
Experimental: Normal brown hair was processed with Revlon Realistic Professional Extra-Strength Relaxer for 30 min. at standard room temperature and humidity. The relaxed brown hair was subjected to six heat cycles, each heat cycle comprised applying the treatment solutions to the hair, blow-drying the hair, and applying heat to the hair for 1 min. in the form of the Professional Flat Iron (Solid Gold) set at “High” (130° C. to 135° C.). The hair was shampooed with a 10% solution of sodium laureth sulfate after each heat cycle, that is, after the heat application and prior to application of the treatment solution.
Normal blonde hair was subjected to 12 heat cycles, as described in Example 2, using a 0.1 wt % solution of D-Lyxosylamine.

[2] = DSC doublet peak area of bleached hair after twelve heat cycles (galactosamine)
Experimental: In the DSC experiments (using DSC-6 with Autosampler, Perkin Elmer), the hair was cut in small fragments (1-2 mm) and sealed in […] aluminum pans that were punctured prior to heating, resulting in a 50 micron laser-drilled opening in the pan lid. The hair was heated from 25° C. to 300° C. at a heating rate of 2^0° C./min. Three runs per section were performed. The results were averaged and standard deviations determined. Normal brown hair was processed with Revlon Realistic Professional Extra-Strength Relaxer for 30 min. at standard room temperature and humidity. The relaxed brown hair was subjected to six heat cycles, each heat cycle comprised applying the treatment solutions to the hair, blow-drying the hair, and applying heat to the hair for 1 min. in the form of the Professional Flat Iron (Solid Gold) set at “High” (130° C. to 135° C.). The hair was shampooed with a 10% solution of sodium laureth sulfate after each heat cycle, that is, after the heat application and prior to application of the treatment solution. Normal brown hair was bleached with […] Blonde Dimensions Dust-Free Bleached mixed with 40 volume (12% hydrogen peroxide). The bleached hair was then subject to twelve heat cycles. The heat treatment was as described in Example 2. The heat-treated hair was tested by DSC (Perkin Elmer Pyris 1 DSC) as described in Example 1. […]

[3] = DSC doublet peak area (alpha-structure) of relaxed hair after six heat cycles
Experimental: In the DSC experiments (using DSC-6 with Autosampler, Perkin Elmer), the hair was cut in small fragments (1-2 mm) and sealed in […] aluminum pans that were punctured prior to heating, resulting in a 50 micron laser-drilled opening in the pan lid. The hair was heated from 25° C. to 300° C. at a heating rate of 2^0° C./min. Three runs per section were performed. The results were averaged and standard deviations determined. Normal brown hair was processed with Revlon Realistic Professional Extra-Strength Relaxer for 30 min. at standard room temperature and humidity. The relaxed brown hair was subjected to six heat cycles, each heat cycle comprised applying the treatment solutions to the hair, blow-drying the hair, and applying heat to the hair for 1 min. in the form of the Professional Flat Iron (Solid Gold) set at “High” (130° C. to 135° C.). The hair was shampooed with a 10% solution of sodium laureth sulfate after each heat cycle, that is, after the heat application and prior to application of the treatment solution. The treatment solutions included: a) deionized water; and b) 1% (w/v) glucosamine hydrochloride (Glucosamine HCl). The hair swatches from Example 2 were studied by differential scanning calorimetry (DSC). In this example, the hair was equilibrated at standard room temperature and humidity for 24 hours prior to testing.

[4] = Wet tensile strength (Dia-Stron) of relaxed hair after six heat cycles
Experimental: Normal brown hair was processed with Revlon Realistic Professional Extra-Strength Relaxer for 30 min. at standard room temperature and humidity. The relaxed brown hair was subjected to six heat cycles, each heat cycle comprised applying the treatment solutions to the hair, blow-drying the hair, and applying heat to the hair for 1 min. in the form of the Professional Flat Iron (Solid Gold) set at “High” (130° C. to 135° C.). The hair was shampooed with a 10% solution of sodium laureth sulfate after each heat cycle, that is, after the heat application and prior to application of the treatment solution. The treatment solutions included: a) deionized water; and b) 1% (w/v) glucosamine hydrochloride (Glucosamine HCl). The hair was tested for wet tensile strength using a Dia-Stron. The fibers were stretched in water at a rate of 10 mm/min., with 50 fibers per test. The results were averaged, and standard deviations determined. As used herein, “Young's modulus” corresponds to the initial resistance of the hair to the applied pulling force, “Work 25%” is the work required to extend the hair fiber to 25% of its length, “Break Extension” is the hair extension observed at the breaking point expressed at percent of its original length, and “Work-Break” is the work required to break the hair.

[5] = DSC doublet peak area of bleached hair after 6 and 12 heat cycles
Experimental: In the DSC experiments (using DSC-6 with Autosampler, Perkin Elmer), the hair was cut in small fragments (1-2 mm) and sealed in […] aluminum pans that were punctured prior to heating, resulting in a 50 micron laser-drilled opening in the pan lid. The hair was heated from 25° C. to 300° C. at a heating rate of 2^0° C./min. Three runs per section were performed. The results were averaged and standard deviations determined. Normal brown hair was processed with Revlon Realistic Professional Extra-Strength Relaxer for 30 min. at standard room temperature and humidity. The relaxed brown hair was subjected to six heat cycles, each heat cycle comprised applying the treatment solutions to the hair, blow-drying the hair, and applying heat to the hair for 1 min. in the form of the Professional Flat Iron (Solid Gold) set at “High” (130° C. to 135° C.). The hair was shampooed with a 10% solution of sodium laureth sulfate after each heat cycle, that is, after the heat application and prior to application of the treatment solution. Normal brown hair was bleached using […] Blonding Gels Clear with 40 volume (12% hydrogen peroxide). The hair was subject to a total of twelve heat cycles. The heat treatment was as described in Example 2. The heat-treated hair was tested by DSC (Perkin Elmer Pyris 1 DSC) as described in Example 1. The hair was tested after Cycles 6 and 12. The treatment solutions included: a) deionized water, b) 0.001% (w/v) glucosamine hydrochloride solution, c) 0.010% (w/v) glucosamine hydrochloride solution, d) 0.100% (w/v) glucosamine hydrochloride solution, and e) 1.000% (w/v) glucosamine hydrochloride solution. Three DSC runs per treatment were performed, the results were averaged, and standard deviations determined.

[6] = 1% solution, relaxed hair, six heat cycles
[7] = relaxed hair after 6 cycles at 130° C. with 1% (w/v) solution, wet tensile, n = 50 fibers

## NC1OC[C@@H](O)[C@H](O)[C@@H]1O (stereo partly drawn) [D-Lyxosylamine]
[1]; 0.1 wt % solution, normal blonde hair, 12 heat cycles
  protection of the α-structure of hair as compared to the control solution (deionized water): protected the α-structure
[1]; normal blonde hair after 12 heat cycles with 0.1% solution
  Doublet Peak Area: 11.49 +/− 3.56 J/g hair

## Cl.N[C@H]1C(O)O[C@H](CO)[C@H](O)[C@@H]1O (some centres unmarked) [Galactosamine HCI, galactosamine hydrochloride]
[2]; 1% solution, bleached hair, 12 heat cycles
  doublet area as compared to the control solution (deionized water): significant increase
[2]; bleached hair after 12 heat cycles with 1% solution
  Doublet Peak Area: 41.52 +/− 3.94 J/g hair

## Cl.N[C@H]1C(O)O[C@H](CO)[C@@H](O)[C@@H]1O (some centres unmarked) [Glucosamine HCl, glucosamine hydrochloride]
[3]; [6]
  doublet area as compared to the control solution (deionized water): significant increase
[3]; relaxed hair after 6 heat cycles with 1% solution
  Doublet Peak Area: 23.11 +/− 7.09 J/g hair
[4]; [6]
  tensile properties as compared to the control treatment with deionized water: superior tensile properties
[4]; [7]
  Break Extension: 55.10 +/− 4.77%
  Work 25%: 419 +/− 111 J/m^2
  Work-Break: 1800 +/− 477 J/m^2
  Young's Modulus: 613 +/− 196 MN/m^2
[5]; 0.001% solution, 6 cycles
  Doublet Peak Area: 11.11 +/− 1.74 J/g hair
[5]; 0.001% solution, 12 cycles
  Doublet Peak Area: 14.74 +/− 5.95 J/g hair
[5]; 0.001% to 1.000% solutions, 6 and 12 heat cycles
  doublet area as compared to the control solution (deionized water): significant increase
[5]; 0.010% solution, 6 cycles
  Doublet Peak Area: 12.32 +/− 3.74 J/g hair
[5]; 0.010% solution, 12 cycles
  Doublet Peak Area: 21.66 +/− 12.88 J/g hair
[5]; 0.100% solution, 6 cycles
  Doublet Peak Area: 17.32 +/− 2.23 J/g hair
[5]; 0.100% solution, 12 cycles
  Doublet Peak Area: 20.92 +/− 1.73 J/g hair
[5]; 1.000% solution, 6 cycles
  Doublet Peak Area: 19.40 +/− 4.14 J/g hair
[5]; 1.000% solution, 12 cycles
  Doublet Peak Area: 22.98 +/− 6.57 J/g hair
